Like-named read-outs stand apart in the source and are kept apart here.
Legend:
[1] = Effect on weight gain in male DIO rats; assay type: in vivo, rat
Method: Male DIO rats, weighing approximately 200 g each were housed singly in plastic cages with wood litter and free access to food and water in a vivarium maintained under a 12 hour light/dark cycle at 21±3°. After an acclimatization period of 1 week, the studies were initiated. During the study period, access to food and water was restricted for 3 hours per day (1000 to 1300 hrs). On day 0, the amount of food and water consumed was measured in all rats in the absence of any treatment. […] A cannabinoid receptor blocker, termed AM251, and an enantiomer of fenfluramine, termed d-FEN1, both of which are known to regulate the melanocortin pathways in animals, were also administered for comparison purposes. Test compounds or vehicle were then orally administered in a volume of 5 mL/kg 60 minutes before access to food and water (0900 hrs). Body weight was measured prior to and 18 hours after administration of the various compounds.

[2] = Toxicokinetic evaluation in dogs; assay type: in vivo; details: beagle, dog, po; for AUC(0-t): read-out: AUC0-24 h
Method: Eighteen male and eighteen female beagle dogs were received from Ridglan Farms, Mt. Horeb, Wis. […] Each group consisted of four males and four females. All animals/sex/group were scheduled for the primary necropsy at the end of the 13-week treatment period.
The animals were observed twice daily for mortality and moribundity. Clinical examinations were performed daily at the time of dosing and approximately 1-2 and approximately 3 hours following dose administration. Detailed physical examinations were performed weekly. Clinical pathology evaluations (hematology, serum chemistry and urinalysis) were performed prior to the initiation of dose administration (study week-1) and prior to the scheduled necropsy (study week 13). Individual body weights were recorded weekly, beginning approximately two weeks prior to test article administration (study week-2). Mean body weights and mean body weight changes were calculated for each corresponding interval. Final body weights (fasted) were recorded prior to the scheduled necropsy. Blood samples for toxicokinetic evaluation were collected from all dogs on study days 0 and 88 at 0, 1, 2, 4, 8 and 24 hours after dose administration. […] Gross lesions were also examined from the 2.0 and 6.0 mg/kg/day groups.

[3] = target: T1, serotonin transporter (Rattus norvegicus, UniProt P31652); assay: Serotonin transporter binding assay, [3H]citalopram; details: from Table 2
T1 construct: The receptor source was rat forebrain membrane; from tissue; host or cells: rat forebrain membranes
T1 sequence (P31652 whole entry): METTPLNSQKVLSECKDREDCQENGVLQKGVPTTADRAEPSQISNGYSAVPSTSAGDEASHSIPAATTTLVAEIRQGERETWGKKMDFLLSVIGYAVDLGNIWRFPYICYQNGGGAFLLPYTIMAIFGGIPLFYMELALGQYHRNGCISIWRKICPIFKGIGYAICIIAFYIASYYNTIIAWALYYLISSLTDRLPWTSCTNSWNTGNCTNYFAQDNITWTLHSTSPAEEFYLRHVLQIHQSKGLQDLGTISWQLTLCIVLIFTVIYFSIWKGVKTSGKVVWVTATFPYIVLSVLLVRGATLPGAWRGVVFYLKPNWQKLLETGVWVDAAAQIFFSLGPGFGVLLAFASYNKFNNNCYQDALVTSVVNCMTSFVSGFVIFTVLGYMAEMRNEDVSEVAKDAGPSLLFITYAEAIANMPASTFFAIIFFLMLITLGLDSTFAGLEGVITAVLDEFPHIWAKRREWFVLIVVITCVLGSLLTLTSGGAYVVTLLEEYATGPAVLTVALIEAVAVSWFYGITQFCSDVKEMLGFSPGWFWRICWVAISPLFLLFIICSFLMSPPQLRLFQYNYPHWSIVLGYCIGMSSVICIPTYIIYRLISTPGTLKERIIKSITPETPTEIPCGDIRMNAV
Method: The reference compound and positive control were (±)-desmethylimipramine. […] Reactions were carried out in 50 mM TRIS-HCl (pH 7.4) containing 120 mM NaCl and 5 mM KCl at 25° C. for 60 minutes. The reaction was terminated by rapid vacuum filtration onto glass fiber filters. Radioactivity trapped in the filters was determined using liquid scintillation spectrometry and compared to control values in order to ascertain any interactions of test compound with the serotonin transporter binding site.

[4] = female, blood, 6 mg/kg/day, female dogs, 6 mg/kg/day oral, Day 0
[5] = female, blood, 6 mg/kg/day, female dogs, 6 mg/kg/day oral, Day 88
[6] = female, blood, 20 mg/kg/day, female dogs, 20 mg/kg/day oral, Day 0
[7] = female, blood, 20 mg/kg/day, female dogs, 20 mg/kg/day oral, Day 88
[8] = female, in vivo, 2 mg/kg/day, female dogs, 2 mg/kg/day oral, Day 0
[9] = female, in vivo, 2 mg/kg/day, female dogs, 2 mg/kg/day oral, Day 88
[10] = male, blood, 2 mg/kg/day, male dogs, 2 mg/kg/day oral, Day 0
[11] = male, blood, 2 mg/kg/day, male dogs, 2 mg/kg/day oral, Day 88
[12] = male, in vivo, 6 mg/kg/day, male dogs, 6 mg/kg/day oral, Day 0
[13] = male, in vivo, 6 mg/kg/day, male dogs, 6 mg/kg/day oral, Day 88
[14] = male, in vivo, 20 mg/kg/day, male dogs, 20 mg/kg/day oral, Day 0
[15] = male, in vivo, 20 mg/kg/day, male dogs, 20 mg/kg/day oral, Day 88

Clc1ccc([C@]23CNCC2C3)cc1Cl (single isomer, unassigned; (+)) [(+)-1-(3,4-dichlorophenyl)-3-azabicyclo[3.1.0]hexane]
body weight gain compared to vehicle ([1]; oral 2, 4, 6, 20 and 40 mg/kg, 18 hours after administration): dose-dependently suppressed this body weight gain
effect on body weight compared with AM251 or d-FEN1 ([1]; oral doses of 20 and 40 mg/kg, 18 hours): significantly more effective than either AM251 or d-FEN1
Tmax ([2]; female, blood, 2 mg/kg/day, female dogs, 2 mg/kg/day oral, Day 0): 1 h
Tmax ([2]; female, blood, 2 mg/kg/day, female dogs, 2 mg/kg/day oral, Day 88): 1 h
Cmax [2, 4]: 5120 ng/mL
Tmax [2, 4]: 1 h
AUC(0-t) [2, 4]: 13600 ng·h/mL
Cmax [2, 5]: 4850 ng/mL
Tmax [2, 5]: 1 h
Cmax [2, 6]: 9280 ng/mL
Tmax [2, 6]: 2 h
AUC(0-t) [2, 6]: 63600 ng·h/mL
Cmax [2, 7]: 8430 ng/mL
Tmax [2, 7]: 1 h
AUC(0-t) [2, 7]: 29600 ng·h/mL
Cmax [2, 8]: 635 ng/mL
AUC(0-t) [2, 8]: 1470 ng·h/mL
Cmax [2, 9]: 663 ng/mL
AUC(0-t) [2, 9]: 2150 ng·h/mL
AUC(0-t) ([2]; female, in vivo, 6 mg/kg/day, female dogs, 6 mg/kg/day oral, Day 88): 15900 ng·h/mL
Cmax [2, 10]: 507 ng/mL
Tmax [2, 10]: 1 h
AUC(0-t) [2, 10]: 1570 ng·h/mL
Cmax [2, 11]: 753 ng/mL
Tmax [2, 11]: 1 h
AUC(0-t) [2, 11]: 2280 ng·h/mL
Cmax [2, 12]: 4640 ng/mL
Tmax [2, 12]: 1 h
AUC(0-t) [2, 12]: 12800 ng·h/mL
Cmax [2, 13]: 4140 ng/mL
Tmax [2, 13]: 1 h
AUC(0-t) [2, 13]: 13100 ng·h/mL
Cmax [2, 14]: 11400 ng/mL
Tmax [2, 14]: 1 h
AUC(0-t) [2, 14]: 47800 ng·h/mL
Cmax [2, 15]: 7230 ng/mL
Tmax [2, 15]: 1 h
AUC(0-t) [2, 15]: 44000 ng·h/mL

Cl.Clc1ccc([C@@]23CNC[C@@H]2C3)cc1Cl (single isomer, unassigned) [(+)-1-(3,4-dichlorophenyl)-3-azabicyclo[3.1.0]hexane hydrochloride]
affinity for the serotonin uptake site compared with the (±) compound [3]: significantly greater affinity

From US20070225351A1, “Methods and compositions for controlling body weight and appetite” (priority 2002, published 2007)
